Converted amounts (≈) assume the structure as drawn. Like-named read-outs stand apart in the source and are kept apart here.

The values below come from publication PMC11347369, “Synthesis and antibacterial action of 3’,6’-disubstituted spectinomycins” (The Journal of Antibiotics, 2024).

For series [1], the system named is M. tuberculosis H37Rv ∆1258c. Put plainly: microbe, parasite or virus in culture. Format: cell-based. The conditions noted are these: Mycobacterium tuberculosis, 168 h.
For series [2], the system named is M. abscessus ATCC 19977 ∆2780c. Put plainly: microbe, parasite or virus in culture. Format: cell-based, Mycobacterium abscessus. Conditions: Mycobacteroides abscessus, ATCC19977, 72 h, read-out: ∆2780c MIC.
Series [3] concerns M. smegmatis strain MC^2 155. The series can be described thus: MIC broth microdilution, M. smegmatis. Type of series: cell-based, Mycobacterium smegmatis. Conditions: Mycolicibacterium smegmatis, MC^2155, 72 h; M. smegmatis strain MC^2 155; 3 days; read-out: WT MIC.
Series [4] deals with E. faecalis ATCC 29212. Put plainly: MIC broth microdilution, E. faecalis. Type of series: cell-based. The conditions noted are these: Enterococcus faecalis, ATCC29212; E. faecalis ATCC 29212; read-out: Minimum Inhibitory Concentration.
Series [5] relates to E. faecium ATCC 19434. Put plainly: MIC broth microdilution, E. faecium. Format: cell-based. The conditions noted are these: Enterococcus faecium, ATCC19434; E. faecium ATCC 19434; read-out: Minimum Inhibitory Concentration. A general note: Broth dilution looks for growth in wells or tubes with falling amounts of substance.
Series [6] deals with S. aureus USA300. Put plainly: MIC broth microdilution, S. aureus. Format: cell-based. Conditions: Staphylococcus aureus.
Series [7] relates to S. epidermidis ATCC 14990. The series can be described thus: MIC broth microdilution, S. epidermidis. Format: cell-based. Conditions: Staphylococcus epidermidis.
In series [8] the test system is S. pneumoniae R6. Put plainly: MIC broth microdilution, S. pneumoniae. Type of series: cell-based. Conditions: Streptococcus pneumoniae, read-out: Minimum Inhibitory Concentration.
The test system of series [9] is S. pyogenes ATCC 700294. The series can be described thus: MIC broth microdilution, S. pyogenes. Conditions: Streptococcus pyogenes, ATCC700294; S. pyogenes ATCC 700294; read-out: Minimum Inhibitory Concentration. Type of series: cell-based.
Series [10] concerns A. baumannii ATCC 19606. Put plainly: MIC broth microdilution, A. baumannii. Format: cell-based, Acinetobacter baumannii. The conditions noted are these: A. baumannii ATCC 19606; for MIC: Acinetobacter baumannii, ATCC19606, read-out: Minimum Inhibitory Concentration.
The subject of series [11] is K. pneumoniae ATCC 700603. Put plainly: MIC broth microdilution, K. pneumoniae. The conditions noted are these: for MIC: Klebsiella pneumoniae. Type of series: cell-based, Klebsiella pneumoniae.
The subject of series [12] is P. aeruginosa ATCC 15692. The series can be described thus: MIC broth microdilution, P. aeruginosa. Type of series: cell-based, Pseudomonas aeruginosa. Conditions: P. aeruginosa ATCC 15692; for MIC: Pseudomonas aeruginosa, ATCC15692, read-out: Minimum Inhibitory Concentration.
In series [13] the test system is E. coli K12 ∆tolC. Put plainly: microbe, parasite or virus in culture. Format: cell-based. Conditions: Escherichia coli, read-out: Minimum Inhibitory Concentration.
Series [14] relates to M. tuberculosis H37Rv.
Series [15] has as its system M. abscessus ATCC 19977.
The test system of series [16] is E. coli K12.
The target in series [17] is T1, M. smegmatis ribosomes (strain SZ380) (Mycolicibacterium smegmatis, UniProt A0QSG6).
T1 construct: S30 extracts were prepared by addition of dithiothreitol (DTT) to 1 mM and centrifugation; endogenous in cells; host or cells: M. smegmatis strain SZ380, S30 cell extract
T1 sequence (A0QSG6 whole entry): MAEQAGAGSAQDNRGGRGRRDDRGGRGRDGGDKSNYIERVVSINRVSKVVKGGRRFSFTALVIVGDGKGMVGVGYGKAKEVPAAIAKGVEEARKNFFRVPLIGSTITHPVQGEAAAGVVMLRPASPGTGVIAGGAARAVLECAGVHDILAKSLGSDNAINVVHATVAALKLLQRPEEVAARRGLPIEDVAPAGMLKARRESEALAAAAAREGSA
The conditions noted are these: read-out: Ribo. IC50; previously reported; cited from earlier work.

Series [18] relates to M. tuberculosis H37Rv. Put plainly: microbe, parasite or virus in culture. The conditions noted are these: Mycobacterium tuberculosis, 168 h, read-out: WT MIC.
Series [19] deals with M. abscessus ATCC 19977. Put plainly: microbe, parasite or virus in culture. Conditions: Mycobacteroides abscessus, ATCC19977, 72 h, read-out: WT MIC.
Series [20] relates to E. coli K12. The series can be described thus: microbe, parasite or virus in culture. The conditions noted are these: Escherichia coli, K12, read-out: Minimum Inhibitory Concentration.
Series [21] deals with T1, M. smegmatis ribosomes (strain SZ380). Put plainly: Mycobacterial cell-free translation inhibition assay. Format: biochemical, Mycobacterium smegmatis. The procedure:
Mycobacterial cell-free translation inhibition assays were performed as described previously. In brief, M. smegmatis strain SZ380 bacterial cells were disrupted and emulsified with a microfluidizer processor (Microfluidics, Westwood, MA, USA) at 25,000 lb/in^2. S30 extracts were prepared by addition of dithiothreitol (DTT) to 1 mM and centrifugation at 30,000 × g at 4 °C. Translation reaction mixtures containing either test article or DMSO vehicle control and 4 μl of the S30 extract, 0.2 mM amino acid mix, 6 μg tRNA (Sigma), 0.4 μg hFluc mRNA, 0.3 μl protease inhibitor (complete, EDTA-free, Roche), 12 U RNAse inhibitor (Ribolock, Thermo Scientific), 6 μl S30 premix without amino acids (Promega), plus water to a final reaction volume of 15 μl were incubated for 1 h at 37 °C. The reaction was stopped on ice before adding 75 μl of luciferase assay reagent (Promega) and recording of luminescence. Regression analysis and IC50 calculations were performed using GraphPad Prism version 9.3.1 by using the equation [log(inhibitor) vs. response–Variable slope (four parameters)] with the fitting method: least squares (ordinary) fit. Y = Bottom + (Top-Bottom)/(1 + 10^((X-LogIC50))).

The test system of series [22] is Gram-positive species. The series can be described thus: MIC, Gram-positive panel compared to SPC. Format: cell-based. The conditions noted are these: against all Gram-positive species.

Usually IC50 stands for the concentration that inhibits the measured activity by half. On to `CN[C@@H]1[C@H](O)[C@H](NC)[C@H]2O[C@@]3(O)C(=O)C[C@@H](C)O[C@H]3O[C@@H]2[C@H]1O` [SPC (1), spectinomycin], for which the MIC in series [1] is 4 µg/mL (≈ 12 µM); in [2], 16 µg/mL (≈ 48.1 µM); in series [3], 64 µg/mL (≈ 193 µM); in [4], 256 µg/mL (≈ 770 µM); in series [5] it was 256 µg/mL (≈ 770 µM); in series [6] (USA300, read-out: Minimum Inhibitory Concentration), 512 µg/mL (≈ 1540 µM). Moreover, the MIC is 256 to 512 µg/mL (≈ 770 to 1540 µM) in [7] (ATCC14990, read-out: Minimum Inhibitory Concentration); 16 µg/mL (≈ 48.1 µM) in series [8]; 32 µg/mL (≈ 96.3 µM) in series [9]; above 1020 µg/mL in [10]; 512 µg/mL (≈ 1540 µM) in series [11] (ATCC700603, read-out: Minimum Inhibitory Concentration); 1020 µg/mL (≈ 3080 µM) in series [12]. Besides, the MIC turned out to be 64 µg/mL (≈ 193 µM) in [13], 64 µg/mL (≈ 193 µM) in series [18], 512 µg/mL (≈ 1540 µM) in [19] and 128 µg/mL (≈ 385 µM) in series [20]. Moreover, the figures for the “Efflux Ratio” value in series [14] and in series [15] were 16 and 32, respectively. Moreover, the “E. coli Efflux Ratio” value in series [16] (E. coli K12 MIC versus K12 ∆tolC MIC) stood at 2. Besides, the IC50 in [17] is 800 nM.

Regarding `CCCC[C@@H]1CC(=O)[C@]2(O)O[C@@H]3[C@@H](NC)[C@@H](O)[C@@H](NC)[C@H](O)[C@H]3O[C@@H]2O1` [TroSPC (2), trospectomycin, reference compound], the MIC in series [1] stood at 2 µg/mL (≈ 5.34 µM); in [2] it was 16 µg/mL (≈ 42.7 µM); in series [3], 32 µg/mL (≈ 85.5 µM); in series [4], 64 µg/mL (≈ 171 µM); in series [5], 64 µg/mL (≈ 171 µM); in [6] (S. aureus USA300, read-out: Minimum Inhibitory Concentration), 64 µg/mL (≈ 171 µM). Further, the MIC is 32 µg/mL (≈ 85.5 µM) in series [7] (ATCC14990, S. epidermidis ATCC 14990, read-out: Minimum Inhibitory Concentration); 4 µg/mL (≈ 10.7 µM) in series [8]; 4 to 8 µg/mL (≈ 10.7 to 21.4 µM) in [9]; above 64 µg/mL in [10]; above 64 µg/mL in [11] (ATCC700603, K. pneumoniae ATCC 700603, read-out: Minimum Inhibitory Concentration); above 64 µg/mL in series [12]. The MIC in series [13] is 16 µg/mL (≈ 42.7 µM); in series [18], 32 µg/mL (≈ 85.5 µM); in series [19] it was 64 µg/mL (≈ 171 µM); in series [20] it was above 64 µg/mL. The half-inhibitory concentration (IC50) in series [21] was determined as 510 nM. Besides, the “Minimum Inhibitory Concentration” value in series [10], in series [11] (K. pneumoniae ATCC 700603) and in series [12] was above 64 µg/mL throughout. The “increase in activity compared to SPC” value in series [22] is above 4 fold. The “Efflux Ratio” value in series [14] worked out at 16; in [15], 4. The “E. coli Efflux Ratio” value in series [16] is above 4.
